The target of assay [1] is T1, HMW-uPA (Homo sapiens, UniProt P00749).
T1 construct: purchased Choay
In words: Inhibition of purified HMW-uPA. It counts as biochemical. Conditions: purified enzyme, pH 7.5, 25°C. As to the method:
(§1) Bovine α-CT and LMW-uPA (MW=33 000 Da) were purchased from Sigma, HMW-uPA (MW=54 000 Da) from Choay, trypsin (TRY) and THR from Boehringer-Indelheim (Germany), and MMP-2 and MMP-9 from Calbiochem. Human leucocyte elastase and PM were from Elastase Products Co. and Biogenic, respectively. Except for THR, HMW-uPA, MMP-2 and MMP-9, enzyme concentrations were determined by active-site titrations using the appropriate titrant ([Bender et al, 1966]; [Chase and Shaw, 1970]; [Powers and Gupton, 1977]). Several enzymes were assayed spectrophotometrically at 405 nm using the following p-nitroanilide substrates: succininyl-Ala2-Pro-Phe-p-nitroanilide (Suc-AAPF-p-NA), benzoyl-Arg-p-nitroanilide (Bz-R-p-NA) and methoxysuccinyl-Ala2-Pro-Val-p-nitroanilide (MeO-Suc-AAPV-p-NA) for α-CT, TRY and HLE, respectively (obtained from Sigma); or S-2238 ([…]), S-2444 (<Glu-Gly-Arg-p-nitroanilide) and S-2251 (H-D-Val-Leu-Lys-p-nitroanilide) for THR, HMW- and LMW-uPA, and PM, respectively (from Biogenic). Matrix metalloprotease-2 previously activated by treatment with APMA were assayed at 412 nm with the thiopeptide Ac-Pro-Leu-Gly-^Sleu-Leu-Gly-Oet in the presence of 5,5′-dithiobis(2-nitrobenzenic) acid (DTNB). […]

In assay [2] the test system is HT1080 cells. Kind of assay: Tumorigenicity of HT1080 cells injected s.c. with matrigel in nude mice. The assay is classed as in vivo. The note with it: 30 mg kg^−1 i.p. three times per week; for effect on tumour growth (tumour volume), HT1080: ANOVA; for time after cell inoculation to reach a tumour incidence of 50%: tumours higher than 80 mm^3. On the procedure:
Matrigel (basement membrane proteins) was extracted from the mouse Engelbreth–Holm–Swarm (EHS) tumour as previously described ([Noël et al, 1991]). Tumoral cells were detached by trypsinisation, harvested by centrifugation, resuspended in 0.25 ml of serum-free medium and mixed with an equal volume of cold matrigel (10 mg ml^−1). The suspension (1 × 10^6 cells injection site^−1) was injected subcutaneously (s.c.) on both body flanks of 6–8-week-old female athymic nude mice (n=6; nu/nu Swiss mice from Iffa credo, L'Arbresle, France). The coumarin derivatives in PBS were injected intraperitoneally (30 mg kg^−1) three times per week during the whole assay.
The tumorigenicity defines the capacity of cells to induce tumour formation. The larger (a) and smaller (b) diameters of the apparent tumour were measured and served for tumour volume calculation according to a × b^2 × 0.4 ([Attia and Weiss, 1966]). Injected mice were examined weekly. Tumours presenting a volume higher than 80 mm^3 and which maintained a progressive growth were taken into account ([Noël et al, 1992]). Results are expressed as the mean (±s.e.m.) of the tumour volumes.

For assay [3], the target named is T2, MMP-2 (Homo sapiens, UniProt P08253).
T2 construct: purchased Calbiochem
T2 sequence (P08253 110-660): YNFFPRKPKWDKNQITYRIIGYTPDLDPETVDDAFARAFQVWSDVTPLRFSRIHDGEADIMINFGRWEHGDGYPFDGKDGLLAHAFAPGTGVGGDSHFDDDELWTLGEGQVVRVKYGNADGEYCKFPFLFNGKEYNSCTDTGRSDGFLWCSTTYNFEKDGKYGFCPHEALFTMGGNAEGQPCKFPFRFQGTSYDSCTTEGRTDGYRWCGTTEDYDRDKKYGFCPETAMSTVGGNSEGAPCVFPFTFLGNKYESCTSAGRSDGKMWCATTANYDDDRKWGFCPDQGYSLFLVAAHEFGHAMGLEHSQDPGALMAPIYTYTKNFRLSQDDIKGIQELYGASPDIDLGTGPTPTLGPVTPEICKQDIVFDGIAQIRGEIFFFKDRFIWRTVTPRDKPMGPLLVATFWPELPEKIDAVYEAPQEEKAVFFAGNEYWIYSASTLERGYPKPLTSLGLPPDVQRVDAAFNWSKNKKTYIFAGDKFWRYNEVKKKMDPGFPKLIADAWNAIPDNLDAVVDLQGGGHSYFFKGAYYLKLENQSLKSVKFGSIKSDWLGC
In words: Inhibition of purified MMP-2. The assay is classed as biochemical. Conditions: purified enzyme, pH 7.5, 25°C. As to the method:
as §1

For `CC(=O)OCc1ccc2oc(=O)c(C(=O)Oc3cccc(Cl)c3)cc2c1` [compound 4, 3-chlorophenyl 6-acetoxymethyl-2-oxo-2H-1-benzopyran-3-carboxylate], the “inhibition of HMW-uPA” value in assay [1] was “not affected”. For the same compound, in assay [2], the “effect on tumour growth (tumour volume), HT1080” value is listed as “did not significantly affect tumour growth” and the “time after cell inoculation to reach a tumour incidence of 50%” value worked out at 26 days. Also, the “inhibition of MMP-2” value in assay [3] is “not affected”.
As to `CC(=O)OCc1ccc2oc(=O)c(C(=O)Oc3cccc(Br)c3)cc2c1` [compound 7, 3-bromophenyl 6-acetoxy-methyl-2-oxo-2H-1-benzopyran-3-carboxylate], the “inhibition of HMW-uPA” value in assay [1] is reported as “not affected”. Also, in assay [2], the “effect on tumour growth (tumour volume), HT1080” value is given as “significantly reduced the tumour growth” and the “time after cell inoculation to reach a tumour incidence of 50%” value came to 48 days. Also, in assay [2] (log Rank test, P<0.004), the “effect on tumour incidence, HT1080” value is “reduce both the incidence”. In addition, in assay [3], the “inhibition of MMP-2” value was “not affected”.

Values taken from PMC2376372, “3-Bromophenyl 6-acetoxymethyl-2-oxo-2H-1-benzopyran-3-carboxylate inhibits cancer cell invasion in vitro and tumour growth in vivo” (British Journal of Cancer, 2003).
